Reference: ChEMBL document CHEMBL4177730, “Rational modification of semaxanib and sunitinib for developing a tumor growth inhibitor targeting ATP binding site of tyrosine kinase” (2018)
Calls of active or inactive are those of the source.

Columns and labels:
Assay type in all cases: functional, cell-based
CCRF-CEM = experiment: Growth inhibition of human CCRF-CEM cells at 10 uM after 48 hrs by sulforhodamine B assay
HL-60(TB) = experiment: Growth inhibition of human HL-60(TB) cells at 10 uM after 48 hrs by sulforhodamine B assay
K562 = experiment: Growth inhibition of human K562 cells at 10 uM after 48 hrs by sulforhodamine B assay
MOLT-4 = experiment: Growth inhibition of human MOLT4 cells at 10 uM after 48 hrs by sulforhodamine B assay
RPMI-8226 = experiment: Growth inhibition of human RPMI8226 cells at 10 uM after 48 hrs by sulforhodamine B assay
SR = experiment: Growth inhibition of human SR cells at 10 uM after 48 hrs by sulforhodamine B assay
A549 = experiment: Growth inhibition of human A549/ATCC cells at 10 uM after 48 hrs by sulforhodamine B assay
EKVX = experiment: Growth inhibition of human EKVX cells at 10 uM after 48 hrs by sulforhodamine B assay
HOP-62 = experiment: Growth inhibition of human HOP62 cells at 10 uM after 48 hrs by sulforhodamine B assay
HOP-92 = experiment: Growth inhibition of human HOP92 cells at 10 uM after 48 hrs by sulforhodamine B assay
NCI-H226 = experiment: Growth inhibition of human NCI-H226 cells at 10 uM after 48 hrs by sulforhodamine B assay
NCI-H23 = experiment: Growth inhibition of human NCI-H23 cells at 10 uM after 48 hrs by sulforhodamine B assay
NCI-H322M = experiment: Growth inhibition of human NCI-H322M cells at 10 uM after 48 hrs by sulforhodamine B assay
NCI-H460 = experiment: Growth inhibition of human NCI-H460 cells at 10 uM after 48 hrs by sulforhodamine B assay
NCI-H522 = experiment: Growth inhibition of human NCI-H522 cells at 10 uM after 48 hrs by sulforhodamine B assay
COLO 205 = experiment: Growth inhibition of human COLO205 cells at 10 uM after 48 hrs by sulforhodamine B assay
HCC 2998 = experiment: Growth inhibition of human HCC2998 cells at 10 uM after 48 hrs by sulforhodamine B assay
HCT-116 = experiment: Growth inhibition of human HCT116 cells at 10 uM after 48 hrs by sulforhodamine B assay
HCT-15 = experiment: Growth inhibition of human HCT15 cells at 10 uM after 48 hrs by sulforhodamine B assay
HT-29 = experiment: Growth inhibition of human HT-29 cells at 10 uM after 48 hrs by sulforhodamine B assay
KM12 = experiment: Growth inhibition of human KM12 cells at 10 uM after 48 hrs by sulforhodamine B assay
SW-620 = experiment: Growth inhibition of human SW620 cells at 10 uM after 48 hrs by sulforhodamine B assay
SF-268 = experiment: Growth inhibition of human SF268 cells at 10 uM after 48 hrs by sulforhodamine B assay
SF-295 = experiment: Growth inhibition of human SF295 cells at 10 uM after 48 hrs by sulforhodamine B assay
SF-539 = experiment: Growth inhibition of human SF539 cells at 10 uM after 48 hrs by sulforhodamine B assay
SNB-19 = experiment: Growth inhibition of human SNB19 cells at 10 uM after 48 hrs by sulforhodamine B assay
SNB-75 = experiment: Growth inhibition of human SNB75 cells at 10 uM after 48 hrs by sulforhodamine B assay
U-251 = experiment: Growth inhibition of human U251 cells at 10 uM after 48 hrs by sulforhodamine B assay
LOX IMVI = experiment: Growth inhibition of human LOXIMVI cells at 10 uM after 48 hrs by sulforhodamine B assay
Malme-3M = experiment: Growth inhibition of human MALME-3M cells at 10 uM after 48 hrs by sulforhodamine B assay
M14 = experiment: Growth inhibition of human M14 cells at 10 uM after 48 hrs by sulforhodamine B assay
MDA-MB-435 = experiment: Growth inhibition of human MDA-MB-435 cells at 10 uM after 48 hrs by sulforhodamine B assay
SK-MEL-2 = experiment: Growth inhibition of human SK-MEL-2 cells at 10 uM after 48 hrs by sulforhodamine B assay
SK-MEL-28 = experiment: Growth inhibition of human SK-MEL-28 cells at 10 uM after 48 hrs by sulforhodamine B assay
SK-MEL-5 = experiment: Growth inhibition of human SK-MEL-5 cells at 10 uM after 48 hrs by sulforhodamine B assay
UACC-62 = experiment: Growth inhibition of human UACC62 cells at 10 uM after 48 hrs by sulforhodamine B assay
IGROV-1 = experiment: Growth inhibition of human IGROV1 cells at 10 uM after 48 hrs by sulforhodamine B assay
OVCAR-3 = experiment: Growth inhibition of human OVCAR3 cells at 10 uM after 48 hrs by sulforhodamine B assay
OVCAR-4 = experiment: Growth inhibition of human OVCAR4 cells at 10 uM after 48 hrs by sulforhodamine B assay
OVCAR-5 = experiment: Growth inhibition of human OVCAR5 cells at 10 uM after 48 hrs by sulforhodamine B assay
OVCAR-8 = experiment: Growth inhibition of human OVCAR8 cells at 10 uM after 48 hrs by sulforhodamine B assay
NCI/ADR-RES = experiment: Growth inhibition of human NCI-ADR-RES cells at 10 uM after 48 hrs by sulforhodamine B assay
SK-OV-3 = experiment: Growth inhibition of human SKOV3 cells at 10 uM after 48 hrs by sulforhodamine B assay
786-0 = experiment: Growth inhibition of human 786-0 cells at 10 uM after 48 hrs by sulforhodamine B assay
A498 = experiment: Growth inhibition of human A498 cells at 10 uM after 48 hrs by sulforhodamine B assay
ACHN = experiment: Growth inhibition of human ACHN cells at 10 uM after 48 hrs by sulforhodamine B assay
CAKI-1 = experiment: Growth inhibition of human CAKI-1 cells at 10 uM after 48 hrs by sulforhodamine B assay
RXF 393 = experiment: Growth inhibition of human RXF393 cells at 10 uM after 48 hrs by sulforhodamine B assay
SN12C = experiment: Growth inhibition of human SN12C cells at 10 uM after 48 hrs by sulforhodamine B assay
TK-10 = experiment: Growth inhibition of human TK10 cells at 10 uM after 48 hrs by sulforhodamine B assay
UO-31 = experiment: Growth inhibition of human UO31 cells at 10 uM after 48 hrs by sulforhodamine B assay
PC-3 = experiment: Growth inhibition of human PC3 cells at 10 uM after 48 hrs by sulforhodamine B assay
DU-145 = experiment: Growth inhibition of human DU145 cells at 10 uM after 48 hrs by sulforhodamine B assay
MCF7 = experiment: Growth inhibition of human MCF7 cells at 10 uM after 48 hrs by sulforhodamine B assay
MDA-MB-231 = experiment: Growth inhibition of human MDA-MB-231 cells at 10 uM after 48 hrs by sulforhodamine B assay
Hs-578T = experiment: Growth inhibition of human Hs 578T cells at 10 uM after 48 hrs by sulforhodamine B assay
BT-549 = experiment: Growth inhibition of human BT549 cells at 10 uM after 48 hrs by sulforhodamine B assay
T47D = experiment: Growth inhibition of human T47D cells at 10 uM after 48 hrs by sulforhodamine B assay
MDA-MB-468 = experiment: Growth inhibition of human MDA-MB-468 cells at 10 uM after 48 hrs by sulforhodamine B assay

Measured: growth inhibition (GI)

O=C1/C(=C\c2cccn2C(=O)c2ccccc2)c2ccccc2N1c1c(Cl)cccc1Cl
inactive: all assays above

O=C1/C(=C\c2cccn2Cc2ccc(Cl)cc2)c2ccccc2N1c1c(Cl)cccc1Cl
inactive: all assays above
